Paper PMC9266368, “Synthesis and Biological Evaluation of Small Molecules as Potential Anticancer Multitarget Agents” (International Journal of Molecular Sciences, 2022)

Key:
[1] = test system: HT-29 (colon adenocarcinoma); experiment: MTT cell viability assay, HT-29; type: cell-based; conditions: Homo sapiens, HT-29, 48 h, 2 days incubation, average ±SD of three experiments
Method: (§1) The effects of triazole derivatives 1–26 on the cell viability were determined by MTT assay, and the IC50 values were determined toward the human tumor cell lines HT-29 (colon adenocarcinoma), A-549 (lung adenocarcinoma), and MCF-7 (breast adenocarcinoma), as well as toward the non-tumor cell line HEK-293 (human embryonic kidney cells).
(§2) In 96-well plates, 3 × 10^3 (A549 and HEK-293) or 5 × 10^3 (HT-29, MCF-7) cells per well were incubated with serial dilutions of the tested compounds in a total volume of 100 μL of their growth media. The 3-(4,5-dimethylthiazol-2-yl)-2,5-diphenyltetrazolium bromide (MTT; Sigma Chemical Co.) dye reduction assay in 96-well microplates was used. After 2 days of incubation (37 °C, 5% CO2 in a humid atmosphere), 10 μL of MTT (5 mg/mL in phosphate-buffered saline, PBS) was added to each well, and the plate was incubated for a further 3 h (37 °C). After that, the supernatant was discarded and replaced by 100 µL of DMSO to dissolve formazan crystals. The absorbance was then read at 550 nm by spectro-photometry. For all concentrations of compound, cell viability was expressed as the percentage of the ratio between the mean absorbance of treated cells and the mean absorbance of untreated cells. Three independent experiments were performed, and the IC50 values (i.e., concentration half inhibiting cell proliferation) were graphically determined by using GraphPad Prism 4 software (2019).

[2] = test system: A-549 (lung adenocarcinoma); experiment: MTT cell viability assay, A-549; type: cell-based; conditions: Homo sapiens, A549, 48 h, 2 days incubation, average ±SD of three experiments
Method: as §1, §2

[3] = test system: MCF-7 (breast adenocarcinoma); experiment: MTT cell viability assay, MCF-7; type: cell-based; conditions: Homo sapiens, MCF7, 48 h, 2 days incubation, average ±SD of three experiments
Method: as §1, §2

[4] = test system: HEK-293 (human embryonic kidney cells); experiment: MTT cell viability assay, HEK-293; type: cell-based; conditions: HEK293, 48 h, 2 days incubation, non-tumor cell line, average ±SD of three experiments
Method: as §1, §2

membrane PD-L1 (mPD-L1) = target: T1, membrane PD-L1 (mPD-L1) (Homo sapiens, UniProt Q9NZQ7); experiment: Membrane PD-L1 relative quantification by flow cytometry; type: cell-based; conditions: 24 h, 100 or 10 μM (Table 7), percentage referred to DMSO control
T1 construct: endogenous in cells; host or cells: HT-29, A-549, MCF-7
Method: Based on antiproliferative activity of synthetized derivatives, we decided to study the effect of the amino derivatives 14–26 on the expression of both membrane targets PD-L1 and VEGFR-2 (mPD-L1 and mVEGFR-2). The evaluation was performed on three cancer cell lines (HT-29, A-549, and MCF-7) by flow cytometry after 24 h of treatment with the corresponding compounds. Compounds were used at a 100 or 10 μM concentration depending on their IC50 value (see Table 1 in Materials and Methods section). The presence of both targets in the membrane was relatively determined by using DMSO-treated cells as a negative control.
(§3) To study the effect of the compounds on every biological target in cancer cell lines the compounds were used at a 100 or 10 μM dose, depending on their IC50 and the treated cell line.
(§4) For the assay, 10^5 cells per well were incubated for 24 h with the corresponding dose of the tested compound in a total volume of 500 μL of their growth media.
To detect membrane PD-L1 and VEGFR-2, after the cell treatments, they were collected, fixed with 4% in PBS paraformaldehyde, and stained with FITC Mouse monoclonal Anti-Human VEGFR-2 (ab184903) and Alexa Fluor® 647 Rabbit monoclonal Anti-PD-L1 (ab215251).

total PD-L1 (tPD-L1) = target: T2, total PD-L1 (tPD-L1) (Homo sapiens, UniProt Q9NZQ7); experiment: Total PD-L1 relative quantification by flow cytometry; type: cell-based; conditions: 24 h, 100 or 10 μM (Table 7), relative to DMSO control
T2 construct: endogenous in cells; host or cells: HT-29, A-549, MCF-7
Method: (§5) The study was carried out again on HT-29, A-549, and MCF-7 cell lines by flow cytometry after 24 h of treatment with the corresponding compounds. The presence of the targets in the whole cell were relatively determined by using DMSO-treated cells as a negative control and BMS-8 as a positive one for PD-L1 (Table 3).
as §3, §4
(§6) For the detection of total PD-L1, VEGFR-2, and c-Myc, the procedure was the same as for membrane targets, but after fixation, a treatment with 0,5% in PBS TritonTM X-100 was performed. The antibodies used for PD-L1 and VEGFR-2 were the ones previously described, and for the detection of c-Myc, it was FITC Rabbit monoclonal anti-c-Myc (ab223913).

c-Myc = c-Myc relative quantification by flow cytometry; type: cell-based, human; conditions: for c-Myc relative detection, A-549 / c-Myc relative detection, HT-29 / c-Myc relative detection, MCF-7: 24 h, 100 or 10 μM (Table 7), relative to DMSO control
Method: as §5, §3, §4, §6

[5] = test system: HT-29 cells co-cultured with Jurkat T cells; experiment: Co-culture HT-29 + PD-1 Jurkat T cells: living HT-29 cells; type: cell-based, human; conditions: 100 μM, 24 h; related to non-treated samples
Method: (§7) Cellular PD-1/PD-L1 blocking activity was studied in a co-culture system with PD-1 Jurkat T cells stimulated by interferon γ and PD-L1-expressing cancer cells. Thereby, we selected chloro derivatives 21–23 to study the proliferation of cancer cells co-cultured in the presence of PD-1 expressing Jurkat T cells in order to evaluate whether the observed PD-L1 inhibition is translated to the blockage of PD-1/PD-L1 system. […] Thus, tumor cells HT-29 were treated for 24 h with the selected compounds at 100 μM in the presence of Jurkat T cells and then living cells were counted by using cytometry and a Neubauer chamber.

Jurkat T cells = experiment: Co-culture HT-29 + PD-1 Jurkat T cells: living Jurkat cells; type: cell-based; conditions: 100 μM, 24 h; related to non-treated samples
Method: as §7

PD-L1 = target: T3, PD-L1 (Homo sapiens, UniProt Q9NZQ7); experiment: Protein thermal shift (PTS) assay; type: binding
T3 construct: purchased ab167713
From the text: This assay measures the melting point (Tm) of the target protein which is a proxy of its stability that can be altered by the binding of a ligand. A change in the melting point relative to the unliganded form implies that a ligand has bound itself to the targeted protein. According to the fundamentals of this technique, an increase in Tm means that the binding of the ligand leads to a stabilization of the target protein, while a decrease in Tm is probably due to the fact that the binding between the ligand and its target leads to a destabilization of the protein. In this case, the tested compounds were able to change the PD-L1 melting temperature.
PTS assay was performed by following the instructions indicated in Protein Thermal ShiftTM Dye Kit (Applied Biosystems reference 4461146), using 2 μL of a 0.1 mg/mL of an aqueous solution of PD-L1 (reference ab167713) and 1.5 μL of a 0.1 mg/mL aqueous solution of the corresponding product. The melting curves were registered by a StepOneTM Real-Time PCR System.

[6] = target: T4, membrane VEGFR-2 (mVEGFR-2) (Homo sapiens, UniProt P35968); experiment: Membrane VEGFR-2 relative quantification by flow cytometry; type: cell-based; conditions: 24 h, 100 or 10 μM (Table 7), sorafenib 10 μM, percentage referred to DMSO control
T4 construct: endogenous in cells; host or cells: HT-29, A-549, MCF-7
Method: The presence of both targets in the membrane was relatively determined by using DMSO-treated cells as a negative control.
as §4

T1 sequence (Q9NZQ7 19-290): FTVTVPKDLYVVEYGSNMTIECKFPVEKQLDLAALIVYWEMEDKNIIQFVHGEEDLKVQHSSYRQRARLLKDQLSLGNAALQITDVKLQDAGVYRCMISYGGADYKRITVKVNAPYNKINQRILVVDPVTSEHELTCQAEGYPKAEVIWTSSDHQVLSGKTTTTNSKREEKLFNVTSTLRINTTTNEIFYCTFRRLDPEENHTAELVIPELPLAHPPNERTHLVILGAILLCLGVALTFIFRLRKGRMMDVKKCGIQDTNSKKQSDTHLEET
T2 sequence (Q9NZQ7 19-290): as above
T4 sequence (P35968 20-1356): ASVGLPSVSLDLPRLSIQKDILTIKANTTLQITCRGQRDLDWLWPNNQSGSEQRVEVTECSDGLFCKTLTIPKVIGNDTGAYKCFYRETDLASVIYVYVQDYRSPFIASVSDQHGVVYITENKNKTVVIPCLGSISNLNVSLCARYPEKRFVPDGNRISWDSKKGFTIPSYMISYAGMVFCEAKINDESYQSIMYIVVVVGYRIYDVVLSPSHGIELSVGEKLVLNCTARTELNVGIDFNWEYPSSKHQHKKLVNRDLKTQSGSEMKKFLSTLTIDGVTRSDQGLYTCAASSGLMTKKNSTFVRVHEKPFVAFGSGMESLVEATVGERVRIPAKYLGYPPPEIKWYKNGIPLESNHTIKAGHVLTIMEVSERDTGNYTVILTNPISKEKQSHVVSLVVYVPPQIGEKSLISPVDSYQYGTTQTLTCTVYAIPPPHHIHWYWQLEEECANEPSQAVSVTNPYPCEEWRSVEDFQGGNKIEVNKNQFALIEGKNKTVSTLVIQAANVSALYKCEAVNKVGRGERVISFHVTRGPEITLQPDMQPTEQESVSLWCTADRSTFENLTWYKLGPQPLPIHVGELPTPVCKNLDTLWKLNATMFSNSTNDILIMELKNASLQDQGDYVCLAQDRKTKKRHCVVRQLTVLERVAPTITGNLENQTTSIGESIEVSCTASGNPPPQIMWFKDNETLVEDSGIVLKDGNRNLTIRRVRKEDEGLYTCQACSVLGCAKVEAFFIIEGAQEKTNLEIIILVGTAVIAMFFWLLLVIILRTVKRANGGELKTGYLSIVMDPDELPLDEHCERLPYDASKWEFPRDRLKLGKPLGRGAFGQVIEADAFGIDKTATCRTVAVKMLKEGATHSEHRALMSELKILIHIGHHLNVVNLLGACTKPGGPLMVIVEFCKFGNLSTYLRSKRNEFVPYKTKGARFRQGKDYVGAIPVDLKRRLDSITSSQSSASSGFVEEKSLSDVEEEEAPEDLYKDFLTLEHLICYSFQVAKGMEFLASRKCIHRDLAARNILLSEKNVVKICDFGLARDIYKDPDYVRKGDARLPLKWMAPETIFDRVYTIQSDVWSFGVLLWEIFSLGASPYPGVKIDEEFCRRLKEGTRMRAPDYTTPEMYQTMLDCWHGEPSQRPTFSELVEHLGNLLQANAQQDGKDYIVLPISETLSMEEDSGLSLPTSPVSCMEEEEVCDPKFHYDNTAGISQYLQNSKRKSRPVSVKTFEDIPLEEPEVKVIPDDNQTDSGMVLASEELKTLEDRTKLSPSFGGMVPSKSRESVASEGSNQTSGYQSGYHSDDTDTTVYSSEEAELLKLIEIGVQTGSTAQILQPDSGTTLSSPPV
T3 sequence (Q9NZQ7 19-290): as the sequence (Q9NZQ7 19-290) above

Row | Compound | IC50 [1] [µM] | IC50 [2] [µM] | IC50 [3] [µM] | IC50 [4] [µM] | mPD-L1 relative detection, A-549 (membrane PD-L1 (mPD-L1)) [%] | mPD-L1 relative detection, HT-29 (membrane PD-L1 (mPD-L1)) [%] | mPD-L1 relative detection, MCF-7 (membrane PD-L1 (mPD-L1)) [%] | tPD-L1 relative detection, A-549 (total PD-L1 (tPD-L1)) [%] | tPD-L1 relative detection, HT-29 (total PD-L1 (tPD-L1)) [%] | tPD-L1 relative detection, MCF-7 (total PD-L1 (tPD-L1)) [%] | c-Myc relative detection, A-549 (c-Myc; A-549) [%] | c-Myc relative detection, HT-29 (c-Myc) [%] | c-Myc relative detection, MCF-7 (c-Myc) [%] | further results
1 | Cc1c(COc2ccc(CN3CCCCC3C(=O)O)cc2Br)cccc1-c1ccccc1 (centres unmarked) [BMS-8, reference compound] | 19 ± 2 | 6 ± 1 | 20 ± 3 | 60 ± 10 | 99 ± 10 | 95 ± 12 | 90 ± 8 | 66 ± 8 | 62 ± 3 | 68 ± 5 | 135 ± 15 | 99 ± 7 | 60 ± 7 | Relative number of living HT-29 cells in co-culture with Jurkat T [5]: 51 ± 8%; Relative number of living Jurkat cells in co-culture with HT-29 (Jurkat T cells): 110 ± 4%; PTS Tm (PD-L1; PD-L1 melting temperature, DMSO 34 °C): 38 °C; PTS ΔTm (PD-L1; shift of PD-L1 melting temperature vs DMSO): +4 °C
2 | Nc1ccc(-c2cn(Cc3ccc(Br)cc3)nn2)cc1 [Compound 26, 4-(1-(4-bromobenzyl)-1H-1,2,3-triazol-4-yl)aniline] | 14 ± 6 | 8 ± 2 | 8 ± 1 | > 100 | 76 ± 4 | 94 ± 15 | 84 ± 23 | 80 ± 12 | 51 ± 2 | >100 | 82 ± 4 | >100 | 64 ± 6 | mVEGFR-2 relative detection, A-549 ([6]; A-549): >100%; mVEGFR-2 relative detection, HT-29 ([6]; HT-29): 85 ± 7%; mVEGFR-2 relative detection, MCF-7 ([6]; MCF-7): >100%; Inhibition of c-Myc, A-549 (c-Myc; A-549, compared to non-treated cells): 20%; melting point: 169 to 170 °C
